Experimental data: patent publication US20150157739A1, “Imidazo[2,1]thiazol-3-one derivatives” (Hoffmann-La Roche Inc., priority 2012, published 2015)
pIC50: −log10 of the molar value.

Tests used:
[1] = target: T1, aggregated recombinant human-microtubule associated protein Tau (Homo sapiens, UniProt P10636); assay: Thiazin-red R displacement fluorescence assay on aggregated Tau; type: binding; details: displacement of Thiazin-red R from aggregated Tau; compound 0.3 nM to 10000 nM; 30 min room temperature; Ex 531 nm/Em 595 nm
T1 construct: Recombinant human-microtubule associated protein Tau purified from E. coli is aggregated at a concentration of 5 μM with Arachidonic Acid (100 μM) in Tris 10 mM pH8, 24 h at 37° C
Experimental: (§1) Assay for Determination of […] for Tau and A-Beta
(§2) Recombinant human-microtubule associated protein Tau purified from E. coli is aggregated at a concentration of 5 μM with Arachidonic Acid (100 μM) in Tris 10 mM pH8, 24 h at 37° C. Synthetic Aβ40 is aggregated at a concentration of 50 μM with Arachidonic Acid (100 μM) in Tris 10 mM pH8, for three days at 37° C., under shaking at 150 rpm.
(§3) A saturation analysis of Thiazin-red R to the aggregated proteins is done to determine the affinity (Kd) of the Thiazin-red R to the aggregated protein.
(§4) Thiazin-red R will be added at the concentration corresponding to the Kd to the respective aggregated protein binding site, to induce a fluorescent signal that can be inhibited by the addition of a displacer compound.
(§5) In parallel, auto fluorescence of the compound is measured together with the aggregated proteins, but without Thiazin-red R. As negative control, ligand and aggregated protein is used and as positive control, Thiazin-red R, reference compound with known activity and aggregated protein is used.
(§6) Assay is performed in Perkin Elmer OptiPlate 384, black, 45 ul assay volume, assay buffer is DPBS no CaCl2 no MgCl2 (GIBCO N. 14020). Tested compounds are diluted in DMSO and 2 μl is added to the assay ([…]). Assay is started by the addition of the aggregated protein (competitive condition). Plates are shortly shacked (1 min with Sterico variomag teleshake) and incubated for 30 min at room temperature. Measurement are done with En:Vision (Perkin Elmer), at Excitation 531 nm/Emission 595 nm.

[2] = target: T2, aggregated synthetic Aβ40 (Homo sapiens, UniProt P05067); assay: Thiazin-red R displacement fluorescence assay on aggregated A-beta; type: binding; details: displacement of Thiazin-red R from aggregated Aβ40; compound 0.3 nM to 10000 nM; 30 min room temperature; Ex 531 nm/Em 595 nm
T2 construct: Synthetic Aβ40 is aggregated at a concentration of 50 μM
Experimental: as §1, §2, §3, §4, §5, §6

T1 sequence (P10636 whole entry): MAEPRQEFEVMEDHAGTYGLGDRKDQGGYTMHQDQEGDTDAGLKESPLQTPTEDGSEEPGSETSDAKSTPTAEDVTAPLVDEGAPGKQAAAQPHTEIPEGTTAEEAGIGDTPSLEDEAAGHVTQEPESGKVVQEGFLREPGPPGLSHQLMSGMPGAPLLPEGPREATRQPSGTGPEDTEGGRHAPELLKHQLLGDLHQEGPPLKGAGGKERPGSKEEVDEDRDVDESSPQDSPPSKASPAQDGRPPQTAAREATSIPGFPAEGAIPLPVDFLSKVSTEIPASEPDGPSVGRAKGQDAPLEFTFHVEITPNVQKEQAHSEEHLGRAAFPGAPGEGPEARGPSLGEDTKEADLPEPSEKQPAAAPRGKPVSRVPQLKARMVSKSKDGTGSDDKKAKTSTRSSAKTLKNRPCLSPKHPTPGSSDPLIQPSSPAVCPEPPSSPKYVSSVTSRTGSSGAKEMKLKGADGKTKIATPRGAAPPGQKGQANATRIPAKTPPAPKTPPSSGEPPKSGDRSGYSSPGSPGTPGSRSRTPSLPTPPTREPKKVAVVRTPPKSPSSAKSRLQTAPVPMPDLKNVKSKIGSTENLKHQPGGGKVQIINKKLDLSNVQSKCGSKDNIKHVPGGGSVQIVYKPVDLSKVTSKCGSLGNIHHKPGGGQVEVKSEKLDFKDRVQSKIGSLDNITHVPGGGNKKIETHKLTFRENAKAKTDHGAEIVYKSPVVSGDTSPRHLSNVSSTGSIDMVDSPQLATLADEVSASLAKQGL
T2 sequence (P05067 672-711 limits assumed): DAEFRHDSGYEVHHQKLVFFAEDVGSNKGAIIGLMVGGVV

Structure (SMILES) | pIC50 [1] | pIC50 [2]
COc1cc(/C=c2\sc3nc(-c4cccc(OC(F)(F)F)c4)cn3c2=O)cc(OC(C)C)c1O [Example 34, 2-[1-(4-Hydroxy-3-methoxy-5-isopropoxy-phenyl)-meth-(Z)-ylidene]-6-(3-trifluoromethoxy-phenyl)-imidazo[2,1-b]thiazol-3-one] | 7.59 | 6.36
CCOc1cc(/C=c2\sc3nc(-c4ccc(Cl)cc4)cn3c2=O)ccc1O [Example 5, 6-(4-Chloro-phenyl)-2-[1-(3-ethoxy-4-hydroxy-phenyl)-meth-(Z)-ylidene]-imidazo[2,1-b]thiazol-3-one] | 6.75 | 5.94
COc1cc(/C=c2\sc3nc(-c4cccc(C#N)c4)cn3c2=O)cc(OC(C)C)c1O [Example 51, 3-{2-[1-(4-Hydroxy-3-methoxy-5-isopropoxyphenyl)-meth-(Z)-ylidene]-3-oxo-2,3-dihydro-imidazo[2,1-b]thiazol-6-yl}-benzonitrile] | 6.56 | < 5.00
COc1cc(/C=c2\sc3nc(-c4c(F)cccc4F)cn3c2=O)cc(Cl)c1O [Example 105, 2-[1-(3-Chloro-4-hydroxy-5-methoxy-phenyl)-meth-(Z)-ylidene]-6-(2,6-difluoro-phenyl)-imidazo[2,1-b]thiazol-3-one] | 7.89 | 5.26
CCCOc1cc(/C=c2\sc3nc(-c4cccnc4)cn3c2=O)cc(Cl)c1O [Example 110, 2-[1-(3-Chloro-4-hydroxy-5-propoxy-phenyl)-meth-(Z)-ylidene]-6-pyridin-3-yl-imidazo[2,1-b]thiazol-3-one] | 7.77 | 6.37
COc1cc(/C=c2\sc3nc(-c4cc(C)on4)cn3c2=O)cc(Cl)c1O [Example 84, 2-[1-(3-Chloro-4-hydroxy-5-methoxy-phenyl)-meth-(Z)-ylidene]-6-(5-methyl-isoxazol-3-yl)-imidazo[2,1-b]thiazol-3-one] | 7.74 | 6.00
COc1cc(/C=c2\sc3nc(-c4ccc(C(=O)N(C)CCCF)cc4)cn3c2=O)cc(Cl)c1O [Example 137] | 8.15 | 6.48
COc1cc(/C=c2\sc3nc(-c4cccc(OC(F)(F)F)c4)cn3c2=O)ccc1O [Example 36, 2-[1-(4-Hydroxy-3-methoxy-phenyl)-meth-(Z)-ylidene]-6-(3-trifluoromethoxy-phenyl)-imidazo[2,1-b]thiazol-3-one] | 6.40 | < 5.00
CCCOc1cc(/C=c2\sc3nc(-c4cncnc4)cn3c2=O)cc(Cl)c1O [Example 130, 2-[1-(3-Chloro-4-hydroxy-5-propoxy-phenyl)-meth-(Z)-ylidene]-6-pyrimidin-5-yl-imidazo[2,1-b]thiazol-3-one] | 7.17 | 5.71
COc1cc(/C=c2\sc3nc(-c4cccc(C#N)c4)cn3c2=O)cc(Br)c1O [Example 45, 3-{2-[1-(3-Bromo-4-hydroxy-5-methoxy-phenyl)-meth-(Z)-ylidene]-3-oxo-2,3-dihydro-imidazo[2,1-b]thiazol-6-yl}-benzonitrile] | 7.60 | < 5.00
COc1cc(/C=c2\sc3nc(-c4ccc(C(F)(F)F)c(F)c4)cn3c2=O)cc(Cl)c1O [Example 28, 2-[1-(3-Chloro-4-hydroxy-5-methoxy-phenyl)-meth-(Z)-ylidene]-6-(3-fluoro-4-trifluoromethyl-phenyl)-imidazo[2,1-b]thiazol-3-one] | 7.64 | 5.98
COc1cc(/C=c2\sc3nc(-c4ccc(C(=O)OCCF)cc4)cn3c2=O)cc(Cl)c1O [Example 148, 4-{2-[1-(3-Chloro-4-hydroxy-5-methoxy-phenyl)-meth-(Z)-ylidene]-3-oxo-2,3-dihydro-imidazo[2,1-b]thiazol-6-yl}-benzoic acid 2-fluoro-ethyl ester] | 8.40 | 7.42
COc1cc(/C=c2\sc3nc(-c4ccc(C(=O)NCCN)cc4)cn3c2=O)cc(Cl)c1O [Example 151, N-(2-Amino-ethyl)-4-{2-[1-(3-chloro-4-hydroxy-5-methoxy-phenyl)-meth-(Z)-ylidene]-3-oxo-2,3-dihydro-imidazo[2,1-b]thiazol-6-yl}-benzamide] | 7.92 | 7.62
O=c1/c(=C/c2cc(Cl)c(O)c(OCCCF)c2)sc2nc(-c3ccncc3)cn12 [Example 123, 2-[1-(3-Chloro-5-(3-fluoropropoxy)-4-hydroxy-phenyl)-meth-(Z)-ylidene]-6-pyridin-4-yl-imidazo[2,1-b]thiazol-3-one] | 7.92 | 5.97
COc1cc(/C=c2\sc3nc(-c4cccc(F)c4)cn3c2=O)cc(OC)c1O [Example 59, 2-[1-(4-Hydroxy-3,5-dimethoxy-phenyl)-meth-(Z)-ylidene]-6-(3-fluoro-phenyl)-imidazo[2,1-b]thiazol-3-one] | 8.70 | 7.30
COc1cc(/C=c2\sc3nc(-c4ccnc(C)c4)cn3c2=O)ccc1O [Example 12, 2-[1-(4-Hydroxy-3-methoxy-phenyl)-meth-(Z)-ylidene]-6-(2-methyl-pyridin-4-yl)-imidazo[2,1-b]thiazol-3-one] | 7.10 | < 5.00
COc1cc(/C=c2\sc3nc(-c4ccncc4)cn3c2=O)cc(Cl)c1O [Example 68, 2-[1-(3-Chloro-4-hydroxy-5-methoxy-phenyl)-meth-(Z)-ylidene]-6-(pyridin-4-yl)-imidazo[2,1-b]thiazol-3-one] | 8.52 | 6.52
COc1cc(/C=c2\sc3nc(-c4ccc5c(c4)CC(=O)N5)cn3c2=O)cc(Cl)c1O [Example 102, 5-{2-[1-(3-Chloro-4-hydroxy-5-methoxy-phenyl)-meth-(Z)-ylidene]-3-oxo-2,3-dihydro-imidazo[2,1-b]thiazol-6-yl}-1,3-dihydro-indol-2-one] | 7.92 | 6.65
COc1cc(/C=c2\sc3nc(-c4ccc(F)c(C(F)(F)F)c4)cn3c2=O)cc(F)c1O [Example 42, 2-[1-(3-fluoro-4-hydroxy-5-methoxy-phenyl)-meth-(Z)-ylidene]-6-(4-fluoro-3-(trifluoromethyl)-phenyl)-imidazo[2,1-b]thiazol-3-one] | 7.62 | 6.70
COc1cc(/C=c2\sc3nc(-c4ccccc4C)cn3c2=O)ccc1O [Example 11, 2-[1-(4-hydroxy-3-methoxy-phenyl)-meth-(Z)-ylidene]-6-o-tolyl-imidazo[2,1-b]thiazol-3-one] | 6.08 | 5.89
COc1cc(/C=c2\sc3nc(-c4cc(C)nc(C)c4)cn3c2=O)ccc1O [Example 13, 2-[1-(4-Hydroxy-3-methoxy-phenyl)-meth-(Z)-ylidene]-6-(2,6-dimethyl-pyridin-4-yl)-imidazo[2,1-b]thiazol-3-one] | 7.04 | < 5.00
COc1cc(/C=c2\sc3nc(-c4cccnc4)cn3c2=O)cc(F)c1O [Example 71, 2-[1-(3-Fluoro-4-hydroxy-5-methoxy-phenyl)-meth-(Z)-ylidene]-6-(pyridin-3-yl)-imidazo[2,1-b]thiazol-3-one] | 7.70 | 6.62
CCN(CC)c1ccc(-c2cn3c(=O)/c(=C/c4cc(Cl)c(O)c(OC)c4)sc3n2)cc1 [Example 91, 2-[1-(3-Chloro-4-hydroxy-5-methoxy-phenyl)-meth-(Z)-ylidene]-6-(4-(diethylamino)phenyl)-imidazo[2,1-b]thiazol-3-one] | 7.70 | 6.74
COc1cc(/C=c2\sc3nc(-c4cc(Br)cc(C#N)c4)cn3c2=O)cc(Cl)c1O [Example 85, 3-Bromo-5-{2-[1-(3-chloro-4-hydroxy-5-methoxy-phenyl)-meth-(Z)-ylidene]-3-oxo-2,3-dihydro-imidazo[2,1-b]thiazol-6-yl}-benzonitrile] | 9.10 | 5.76
CCCOc1cc(/C=c2\sc3nc(-c4cnccn4)cn3c2=O)cc(Cl)c1O [Example 129, 2-[1-(3-Chloro-4-hydroxy-5-propoxy-phenyl)-meth-(Z)-ylidene]-6-pyrazin-2-yl-imidazo[2,1-b]thiazol-3-one] | 7.19 | 5.65
COc1cc(/C=c2\sc3nc(-c4ccc(C(=O)NCCF)cc4)cn3c2=O)cc(Cl)c1O [Example 116, 4-{2-[1-(3-Chloro-4-hydroxy-5-methoxy-phenyl)-meth-(Z)-ylidene]-3-oxo-2,3-dihydro-imidazo[2,1-b]thiazol-6-yl}-N-(2-fluoro-ethyl)-benzamide] | 8.52 | 6.09
COc1cc(/C=c2\sc3nc(-c4cccc(OCCOCCOCCF)c4)cn3c2=O)cc(Cl)c1O [Example 95, 2-[1-(3-Chloro-4-hydroxy-5-methoxy-phenyl)-meth-(Z)-ylidene]-6-(3-{2-[2-(2-fluoro-ethoxy)-ethoxy]-ethoxy}-phenyl)-imidazo[2,1-b]thiazol-3-one] | 7.55 | 5.67
